Assay results reported in patent publication US12402624B2, “Polymorphs of mesotrione metal chelate and preparation process” (priority 2017, dated 2025).

Test: Particle size distribution (D50, D90) of the polymorph
Format: physicochemical
Conditions: for Particle size D(0.9): D90; for Particle size D(0.5): median diameter D50
[1] = listed as Mesotrione copper chelate form II-a
[2] = listed as Mesotrione copper chelate form II-b
[3] = listed as Mesotrione copper chelate form I-a
[4] = listed as Mesotrione copper chelate form I-b

mesotrione copper chelate [Mesotrione copper chelate form II]
Particle size D(0.9) [1]: 34.08 μm
Particle size D(0.9) [2]: 27.33 μm
Particle size D(0.5) [1]: 17.58 μm
Particle size D(0.5) [2]: 16.74 μm

mesotrione copper chelate [Mesotrione copper chelate form I]
Particle size D(0.9) [3]: 13.02 μm
Particle size D(0.9) [4]: 13.22 μm
Particle size D(0.5) [3]: 7.94 μm
Particle size D(0.5) [4]: 7.62 μm
